{
  "source": "paper PMC2803217",
  "about": "(Journal of Experimental Botany, 2009)",
  "molecules": {"B1": {"name": "AtPMT1 (Arabidopsis thaliana) (protein)", "chain": "MNSSGVEQGVVIAESEPPRGNRSRYAFACAILASMTSIILGYDIGVMSGASIFIKDDLKLSDVQLEILMGILNIYSLVGSGAAGRTSDWLGRRYTIVLAGAFFFCGALLMGFATNYPFIMVGRFVAGIGVGYAMMIAPVYTAEVAPASSRGFLTSFPEIFINIGILLGYVSNYFFSKLPEHLGWRFMLGVGAVPSVFLAIGVLAMPESPRWLVLQGRLGDAFKVLDKTSNTKEEAISRLDDIKRAVGIPDDMTDDVIVVPNKKSAGKGVWKDLLVRPTPSVRHILIACLGIHFAQQASGIDAVVLYSPTIFSKAGLKSKNDQLLATVAVGVVKTLFIVVGTCVVDRFGRRALLLTSMGGMFLSLTALGTSLTVINRNPGQTLKWAIGLAVTTVMTFVATFSIGAGPVTWVYCSEIFPVRLRAQGASLGVMLNRLMSGIIGMTFLSLSKGLTIGGAFLLFAGVAAAAWVFFFTFLPETRGIPLEEMETLFGSYTANKKNNSMSKDNEVVDGQ"}, "B2": {"name": "AtPMT2 (Arabidopsis thaliana) (protein)", "chain": "MSSSGEERGVVVAESEPPRGNRSRFAFACAILASMTSIILGYDIGVMSGAAIFIKDDLKLSDVQLEILMGILNIYSLIGSGAAGRTSDWIGRRYTIVLAGFFFFCGALLMGFATNYPFIMVGRFVAGIGVGYAMMIAPVYTTEVAPASSRGFLSSFPEIFINIGILLGYVSNYFFAKLPEHIGWRFMLGIGAVPSVFLAIGVLAMPESPRWLVMQGRLGDAFKVLDKTSNTKEEAISRLNDIKRAVGIPDDMTDDVIVVPNKKSAGKGVWKDLLVRPTPSVRHILIACLGIHFSQQASGIDAVVLYSPTIFSRAGLKSKNDQLLATVAVGVVKTLFIVVGTCLVDRFGRRALLLTSMGGMFFSLTALGTSLTVIDRNPGQTLKWAIGLAVTTVMTFVATFSLGAGPVTWVYASEIFPVRLRAQGASLGVMLNRLMSGIIGMTFLSLSKGLTIGGAFLLFAGVAVAAWVFFFTFLPETRGVPLEEIESLFGSYSANKKNNVMSKGKQVVDEQ"}},
  "key": {"AtPMT2": {"target": "T1, AtPMT2 (Arabidopsis thaliana, UniProt Q9XIH6)", "T1 sequence (Q9XIH6 1-511)": "B2 chain", "assay": "competition of […]-sorbitol uptake in transgenic yeast", "format": "cell-based", "settings": "pH 5.0"}, "AtPMT1": {"target": "T2, AtPMT1 (Arabidopsis thaliana, UniProt Q9XIH7)", "T2 sequence (Q9XIH7 1-511)": "B1 chain", "assay": "competition of […]-sorbitol uptake in transgenic yeast", "format": "cell-based", "settings": "pH 5.0"}, "[1]": {"substrate": "OC[C@@H](O)[C@@H](O)[C@H](O)[C@@H](O)CO", "assay": "cells, lysate or membranes", "settings": "50 mM sodium phosphate pH 5.0, H+ symport"}, "[2]": {"substrate": "OC[C@@H](O)[C@H](O)[C@@H](O)CO", "assay": "cells, lysate or membranes", "settings": "50 mM sodium phosphate pH 5.0, H+ symport"}},
  "data": [
    {"molecule": "OC[C@@H](O)[C@@H](O)[C@H](O)[C@@H](O)CO", "note": "[sorbitol]", "values": [
      {"measurement": "uptake of 0.1 mM 14C-sorbitol with 10 mM competitor", "setting": "AtPMT2; 10 mM unlabelled sorbitol", "result": "sorbitol was transported by both cell lines"}
    ]},
    {"molecule": "OC[C@@H](O)[C@@H](O)CO", "note": "[erythritol]", "values": [
      {"measurement": "uptake of 0.1 mM 14C-sorbitol with 10 mM competitor", "setting": "AtPMT1", "result": "In both strains, uptake of sorbitol was strongly reduced in the presence of xylitol"},
      {"measurement": "uptake of 0.1 mM 14C-sorbitol with 10 mM competitor", "setting": "AtPMT2; 10 mM competitor", "result": "In both strains, uptake of sorbitol was strongly reduced in the presence of xylitol"}
    ]},
    {"molecule": "B1", "values": [
      {"measurement": "Km", "setting": "[1]", "result": "770 ± 120", "unit": "µM"},
      {"measurement": "Km", "setting": "[2]", "result": "140 ± 20", "unit": "µM"}
    ]},
    {"molecule": "B2", "values": [
      {"measurement": "Km", "setting": "[2]", "result": "180 ± 10", "unit": "µM"}
    ]}
  ]
}
